According to patent publication US20190100534A1, “Cephem Compounds with Latent Reactive Groups” (Gladius Pharmaceuticals, Inc., priority 2017, published 2019):

Legend:
Assay type in all cases: cell-based
[1] = tested on: Isogenic E. coli J58 strain carrying SHV-1; assay: MIC determination, isogenic E. coli strains; conditions: for MIC: Escherichia coli, 18 h, read-out: Mimimum Inhibitory Concentrations, SHV-1
In short: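 MIC is the lowest compound concentration leaving a transparent well after overnight (18 h) incubation at 37 °C. The test strain was E. coli J53 expressing plasmid-borne SHV-1 beta-lactamase from pBC-SK(+), adjusted to 0.5 McFarland. Compounds were twofold serially diluted, starting at 64 μg/mL, in CAMH broth supplemented with 20 μM apo-transferrin.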

[2] = tested on: Isogenic E. coli J58 strain carrying DHA-1; assay: MIC determination, isogenic E. coli strains; conditions: for MIC: Escherichia coli, 18 h, read-out: Mimimum Inhibitory Concentrations, DHA-1
In short: (§1)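 MIC read as the lowest compound level giving a transparent well after 18 h at 37° C. Strains: parent E. coli J53 and isogenic transformants expressing plasmid-borne (pBC-SK(+)) beta-lactamases such as DHA-1; inoculum 0.5 McFarland; CAMH broth plus 20 μM apo-transferrin; compound 64 μg/mL downward, 2-fold dilutions.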

E. coli J53 Alone = assay: MIC determination, isogenic E. coli strains; conditions: for MIC: Escherichia coli, J53ALONE, 18 h, read-out: Mimimum Inhibitory Concentrations, J53 Alone; for Mimimum Inhibitory Concentrations, J53 Alone: CAMH broth, 20 μM Apo-Transferrin, 37° C., 18 hours
In short: as §1

[3] = tested on: Isogenic E. coli J58 strain carrying TEM-26; assay: MIC determination, isogenic E. coli strains; conditions: for MIC: Escherichia coli, 18 h, read-out: Mimimum Inhibitory Concentrations, TEM-26
In short: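 E. coli J53 carried a pBC-SK(+) plasmid expressing TEM-26 β-lactamase. Compounds were serially halved from […] in CAMH broth containing 20 μM apo-transferrin, inoculated from a 0.5 McFarland culture and held overnight (18 h, 37° C); MIC read as the lowest concentration without visible growth.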

[4] = tested on: Isogenic E. coli J58 strain carrying IMP-1; assay: MIC determination, isogenic E. coli strains; conditions: for MIC: Escherichia coli, 18 h, read-out: Mimimum Inhibitory Concentrations, IMP-1
In short: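 Broth microdilution in cation-adjusted Mueller-Hinton broth with 20 μM apo-transferrin, compound serially diluted two-fold from 64 μg/mL, against E. coli J53 carrying plasmid-borne IMP-1. Inoculum adjusted to 0.5 McFarland; plates incubated 18 h at 37° C. MIC taken as lowest concentration giving a clear well.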

[5] = tested on: Pseudomonas aeruginosa PA-RR-(G7305586); assay: MIC determination; conditions: PA-RR-(G7305586), CAMH broth, 20 μM Apo-Transferrin, 37° C., 18 hours; for MIC: Pseudomonas aeruginosa, read-out: Minimum Inhibitory Concentrations, PA-RR-(G7305586)
In short: (§2)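 Broth microdilution in CAMH + 20 μM apo-transferrin; inoculum 0.5 McFarland, used within 30 min. Compound 64→0.125 μg/mL, twofold steps. 37 °C, 18 h. MIC = lowest clear-well concentration.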

[6] = tested on: Pseudomonas aeruginosa PA-RR-(purple Fre D); assay: MIC determination; conditions: CAMH broth, 20 μM Apo-Transferrin, 37° C., 18 hours; for MIC: Pseudomonas aeruginosa, read-out: Minimum Inhibitory Concentrations, PA-RR-(purple Fre D)
In short: as §2

[7] = tested on: Pseudomonas aeruginosa PA-RR-(98023895); assay: MIC determination; conditions: PA-RR-(98023895), CAMH broth, 20 μM Apo-Transferrin, 37° C., 18 hours; for MIC: Pseudomonas aeruginosa, read-out: Minimum Inhibitory Concentrations, PA-RR-(98023895)
In short: as §2

[8] = tested on: Pseudomonas aeruginosa PA-RR-(G7294437); assay: MIC determination; conditions: PA-RR-(G7294437), CAMH broth, 20 μM Apo-Transferrin, 37° C., 18 hours; for MIC: Pseudomonas aeruginosa, read-out: Minimum Inhibitory Concentrations, PA-RR-(G7294437)
In short: as §2

[9] = tested on: Pseudomonas aeruginosa PA (RR-2); assay: MIC determination; conditions: PA (RR-2), CAMH broth, 20 μM Apo-Transferrin, 37° C., 18 hours; for MIC: Pseudomonas aeruginosa, read-out: Minimum Inhibitory Concentrations, PA (RR-2)
In short: as §2

[10] = tested on: Pseudomonas aeruginosa PA (RR-1); assay: MIC determination; conditions: PA (RR-1), CAMH broth, 20 μM Apo-Transferrin, 37° C., 18 hours; for MIC: Pseudomonas aeruginosa, read-out: Minimum Inhibitory Concentrations, PA (RR-1)
In short: as §2

[11] = tested on: Isogenic E. coli J58 strain carrying CTX-M-15; assay: MIC determination, isogenic E. coli strains; conditions: for MIC: Escherichia coli, 18 h, read-out: Mimimum Inhibitory Concentrations, CTX-M-15
In short: (§3)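 Isogenic E. coli J53 carrying plasmid-encoded CTX-M-14 or CTX-M-15 (ampicillin-selected), standardized to 0.08-0.1 OD600, incubated overnight (18 h, 37° C.) in CAMH broth plus 20 μM apo-transferrin over 2-fold compound dilutions starting at 64 μg/mL. Lowest concentration with no visible growth recorded as MIC.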

[12] = tested on: Isogenic E. coli J58 strain carrying CTX-M-14; assay: MIC determination, isogenic E. coli strains; conditions: for MIC: Escherichia coli, 18 h, read-out: Mimimum Inhibitory Concentrations, CTX-M-14
In short: as §3

[13] = tested on: Isogenic E. coli J58 strain carrying VIM-2; assay: MIC determination, isogenic E. coli strains; conditions: for MIC: Escherichia coli, 18 h, read-out: Mimimum Inhibitory Concentrations, VIM-2
In short: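 Broth microdilution in cation-adjusted Mueller-Hinton with 20 μM apo-transferrin, compound serially halved from 64 μg/mL, read by eye after 18 h at 37 °C as lowest clear well. Inoculum: VIM-2-expressing E. coli J53 (pBC-SK(+) plasmid), adjusted to 0.5 McFarland.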

[14] = tested on: Isogenic E. coli J58 strain carrying KPC-2; assay: MIC determination, isogenic E. coli strains; conditions: for MIC: Escherichia coli, 18 h, read-out: Mimimum Inhibitory Concentrations, KPC-2
In short: (§4)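 Strain: E. coli J53 electroporated with a pBC-SK(+) plasmid encoding the KPC enzyme, selected on ampicillin. Twofold dilutions ([…]) were made in CAMH broth containing 20 μM apo-transferrin and inoculated at 0.5 McFarland. After overnight (18 h) growth at 37 °C, MIC was read as the lowest concentration with no visible growth.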

[15] = tested on: Isogenic E. coli J58 strain carrying KPC-3; assay: MIC determination, isogenic E. coli strains; conditions: for MIC: Escherichia coli, 18 h, read-out: Mimimum Inhibitory Concentrations, KPC-3
In short: as §4

[16] = tested on: Isogenic E. coli J58 strain carrying NDM-1; assay: MIC determination, isogenic E. coli strains; conditions: for MIC: Escherichia coli, 18 h, read-out: Mimimum Inhibitory Concentrations, NDM-1
In short: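 Broth microdilution was run in cation-adjusted Mueller-Hinton broth supplemented with 20 μM apo-transferrin, using a 64 μg/mL top concentration diluted twofold. The inoculum was NDM-1-expressing E. coli J53 (pBC-SK(+) plasmid) at 0.5 McFarland. After overnight incubation (18 h, 37° C), the lowest compound concentration preventing visible growth was recorded as the MIC.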

Structure (SMILES) | MIC [1] | MIC [2] | MIC (E. coli J53 Alone) | Mimimum Inhibitory Concentrations, J53 Alone (E. coli J53 Alone; Table 4-2) | MIC [3] | MIC [4] | MIC [5] | MIC [6] | MIC [7] | MIC [8] | MIC [9] | MIC [10] | MIC [11] | MIC [12] | MIC [13] | MIC [14] | MIC [15] | MIC [16] | also measured
CC(C)(O/N=C(\C(=O)N[C@@H]1C(=O)N2C(C(=O)O)=C(C=Cc3ccc(C[N+](C)(C)Cc4ccc(O)c(O)c4Cl)cc3)CS[C@H]12)c1csc(N)n1)C(=O)O (mixture of isomers) [Compound 434, N-(4-((E/Z)-2-((6R,7R)-7-((Z)-2-(2-aminothiazol-4-yl)-2-(((2-carboxypropan-2-yl)oxy)imino)acetamido)-2-carboxy-8-oxo-5-thia-1-azabicyclo[4.2.0]oct-2-en-3-yl)vinyl)benzyl)-1-(2-chloro-3,4-dihydroxyphenyl)-N,N-dimethylmethanaminium] | 1 µg/mL | 1 µg/mL | 0.25 µg/mL | 0.25 microgram/mL | 2 µg/mL | 0.25 µg/mL | 8 µg/mL | 2 µg/mL | 8 µg/mL | 0.5 µg/mL | 2 µg/mL | 1 µg/mL | 0.5 µg/mL | 2 µg/mL | 2 µg/mL | 16 µg/mL | 64 µg/mL | > 64 µg/mL | 
CC(C)(O/N=C(\C(=O)N[C@@H]1C(=O)N2C(C(=O)O)=C(C=Cc3ccc(C[n+]4ccc5cc(O)c(O)cc5c4)cc3)CS[C@H]12)c1csc(N)n1)C(=O)O (mixture of isomers) [Compound 435, 2-(4-((E/Z)-2-((6R,7R)-7-((Z)-2-(2-aminothiazol-4-yl)-2-(((2-carboxypropan-2-yl)oxy)imino)acetamido)-2-carboxy-8-oxo-5-thia-1-azabicyclo[4.2.0]oct-2-en-3-yl)vinyl)benzyl)-6,7-dihydroxyisoquinolin-2-ium] |  |  |  | ≤0.06 microgram/mL |  |  |  |  |  |  |  |  |  |  |  |  |  |  | Mimimum Inhibitory Concentrations, SHV-1 ([1]; isogenic E. coli strain, SHV-1, CAMH broth, 20 μM Apo-Transferrin, 37° C., 18 hours): 0.13 microgram/mL; Mimimum Inhibitory Concentrations, DHA-1 ([2]; isogenic E. coli strain, DHA-1, CAMH broth, 20 μM Apo-Transferrin, 37° C., 18 hours): ≤0.06 microgram/mL; Mimimum Inhibitory Concentrations, J53 Alone (E. coli J53 Alone; Table 4-1): ≤0.06 microgram/mL; Mimimum Inhibitory Concentrations, TEM-26 ([3]; isogenic E. coli strain, TEM-26, CAMH broth, 20 μM Apo-Transferrin, 37° C., 18 hours): ≤0.06 microgram/mL; Mimimum Inhibitory Concentrations, IMP-1 ([4]; isogenic E. coli strain, IMP-1, CAMH broth, 20 μM Apo-Transferrin, 37° C., 18 hours): 0.13 microgram/mL; MICs for an E. coli strain carrying the gene for carbapenemase IMP-1, in words ([4]; review of Tables 4-1 and 4-2): low microgram/mL MICs; Minimum Inhibitory Concentrations, PA-RR-(G7305586) [5]: 0.25 microgram/mL; Minimum Inhibitory Concentrations, PA-RR-(purple Fre D) [6]: 0.5 microgram/mL; Minimum Inhibitory Concentrations, PA-RR-(98023895) [7]: 1 microgram/mL; Minimum Inhibitory Concentrations, PA-RR-(G7294437) [8]: ≤0.06 microgram/mL; Minimum Inhibitory Concentrations, PA (RR-2) [9]: ≤0.06 microgram/mL; Minimum Inhibitory Concentrations, PA (RR-1) [10]: 0.25 microgram/mL; Mimimum Inhibitory Concentrations, CTX-M-15 ([11]; isogenic E. coli strain, CTX-M-15, CAMH broth, 20 μM Apo-Transferrin, 37° C., 18 hours): ≤0.06 microgram/mL; Mimimum Inhibitory Concentrations, CTX-M-14 ([12]; isogenic E. coli strain, CTX-M-14, CAMH broth, 20 μM Apo-Transferrin, 37° C., 18 hours): ≤0.06 microgram/mL; Mimimum Inhibitory Concentrations, VIM-2 ([13]; isogenic E. coli strain, VIM-2, CAMH broth, 20 μM Apo-Transferrin, 37° C., 18 hours): ≤0.06 microgram/mL; MICs for an E. coli strain carrying the gene for carbapenemase VIM-1, in words ([13]; review of Tables 4-1 and 4-2): low microgram/mL MICs; Mimimum Inhibitory Concentrations, KPC-2 ([14]; isogenic E. coli strain, KPC-2, CAMH broth, 20 μM Apo-Transferrin, 37° C., 18 hours): 0.25 microgram/mL; Mimimum Inhibitory Concentrations, KPC-3 ([15]; isogenic E. coli strain, KPC-3, CAMH broth, 20 μM Apo-Transferrin, 37° C., 18 hours): 0.13 microgram/mL; Mimimum Inhibitory Concentrations, NDM-1 ([16]; isogenic E. coli strain, NDM-1, CAMH broth, 20 μM Apo-Transferrin, 37° C., 18 hours): 2 microgram/mL; MICs for an E. coli strain carrying the gene for NDM-1, in words ([16]; review of Tables 4-1 and 4-2): lower MICS compared to other compounds tested
CC(C)(O/N=C(\C(=O)N[C@@H]1C(=O)N2C(C(=O)O)=C(C=Cc3ccc(C[N+](C)(C)Cc4cc(O)c(O)c(Cl)c4)cc3)CS[C@H]12)c1csc(N)n1)C(=O)O (mixture of isomers) [Compound 436, N-(4-((E/Z)-2-((6R,7R)-7-((Z)-2-(2-aminothiazol-4-yl)-2-(((2-carboxypropan-2-yl)oxy)imino)acetamido)-2-carboxy-8-oxo-5-thia-1-azabicyclo[4.2.0]oct-2-en-3-yl)vinyl)benzyl)-1-(3-chloro-4,5-dihydroxyphenyl)-N,N-dimethylmethanaminium] | 1 µg/mL | 0.25 µg/mL | 0.13 µg/mL | 0.13 microgram/mL | 2 µg/mL | 8 µg/mL | 8 µg/mL | 2 µg/mL | 4 µg/mL | 0.5 µg/mL | 4 µg/mL | 2 µg/mL | 0.5 µg/mL | 1 µg/mL | 1 µg/mL | 64 µg/mL | 8 µg/mL | > 64 µg/mL | 
